For orientation: pIC50 means −log10 of the IC50, conventionally taken in molar units.

What all share (assay type): biochemical
The target in experiment [1] is adenosine A2B receptor (Homo sapiens (Human), UniProt P29275). The experiment in a line: Adenosine receptor activity assay (Table 1), A2B activity. The conditions noted are these: for Ratio: A2A activity to the A2B activity, A2A/A2B; for pIC50: read-out: Ave A2B cAMP IC50.
Experiment [2] addresses adenosine A2A receptor (Homo sapiens (Human), UniProt P29274). Description: Adenosine receptor activity assay (Table 1), A2A activity. As to conditions: read-out: Ave A2A cAMP IC50.
In experiment [3] the target is adenosine A1 receptor (Homo sapiens (Human), UniProt P30542). Description: Adenosine receptor activity assay (Table 1), A1 cAMP. The procedure: (§1) Table 1. Compounds (e.g., Adenosine Receptor modulators) and activity assay results. The legend is as follows: A=<10 nM; B=10-50 nM; C=50-100 nM; D=100-500; and E=>500 nM. The ratio corresponds to the A2A activity to the A2B activity; or A2A/A2B.
adenosine A1 receptor, sequence (P30542 whole entry): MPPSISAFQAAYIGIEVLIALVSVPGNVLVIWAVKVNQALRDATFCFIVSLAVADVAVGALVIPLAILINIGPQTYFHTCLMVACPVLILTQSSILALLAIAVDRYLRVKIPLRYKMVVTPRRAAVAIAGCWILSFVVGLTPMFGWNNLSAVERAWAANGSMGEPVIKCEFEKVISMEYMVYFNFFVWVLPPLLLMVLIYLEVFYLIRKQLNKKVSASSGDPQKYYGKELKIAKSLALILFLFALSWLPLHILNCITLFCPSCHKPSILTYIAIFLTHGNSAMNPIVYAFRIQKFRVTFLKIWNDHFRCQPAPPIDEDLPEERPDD

The target of experiment [4] is adenosine A3 receptor (Homo sapiens (Human), UniProt P0DMS8). Description: Adenosine receptor activity assay (Table 1), A3 cAMP. The procedure:
as §1

pIC50: −log10 of the molar value.

adenosine A2B receptor, sequence (P29275 whole entry): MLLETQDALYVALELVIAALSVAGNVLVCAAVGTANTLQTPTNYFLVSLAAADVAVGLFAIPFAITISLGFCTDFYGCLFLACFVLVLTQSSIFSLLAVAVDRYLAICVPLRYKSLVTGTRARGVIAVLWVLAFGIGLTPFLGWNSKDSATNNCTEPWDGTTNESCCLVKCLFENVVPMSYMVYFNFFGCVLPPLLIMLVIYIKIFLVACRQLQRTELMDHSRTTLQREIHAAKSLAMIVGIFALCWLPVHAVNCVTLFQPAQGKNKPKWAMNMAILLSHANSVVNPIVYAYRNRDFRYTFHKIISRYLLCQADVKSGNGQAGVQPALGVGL
adenosine A2A receptor, sequence (P29274 whole entry): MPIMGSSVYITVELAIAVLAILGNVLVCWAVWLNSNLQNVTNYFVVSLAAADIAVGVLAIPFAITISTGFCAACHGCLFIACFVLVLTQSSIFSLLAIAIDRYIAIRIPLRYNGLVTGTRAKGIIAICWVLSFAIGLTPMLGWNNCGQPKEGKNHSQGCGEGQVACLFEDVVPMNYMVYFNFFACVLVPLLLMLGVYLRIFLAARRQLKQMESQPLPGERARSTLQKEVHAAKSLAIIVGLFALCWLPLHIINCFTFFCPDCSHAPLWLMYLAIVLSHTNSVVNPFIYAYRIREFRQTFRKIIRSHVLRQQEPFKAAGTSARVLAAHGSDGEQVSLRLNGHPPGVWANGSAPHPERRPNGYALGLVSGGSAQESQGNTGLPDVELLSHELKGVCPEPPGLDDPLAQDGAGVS
adenosine A3 receptor, sequence (P0DMS8 whole entry): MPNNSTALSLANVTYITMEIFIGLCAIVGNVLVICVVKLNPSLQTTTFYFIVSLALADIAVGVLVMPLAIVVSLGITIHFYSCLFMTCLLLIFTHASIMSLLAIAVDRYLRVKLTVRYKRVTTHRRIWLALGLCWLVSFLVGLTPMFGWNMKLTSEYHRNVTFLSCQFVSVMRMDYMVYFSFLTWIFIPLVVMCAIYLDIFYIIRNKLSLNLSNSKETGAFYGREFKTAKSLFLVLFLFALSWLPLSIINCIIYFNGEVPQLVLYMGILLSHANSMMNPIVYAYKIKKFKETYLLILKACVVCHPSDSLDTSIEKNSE

Take `C[C@H](Nc1nc(C(=O)NCCc2ccc(O)cc2)c2sccc2n1)c1ccnc(F)c1` [Example Z405, (S)-2-((1-(2-Fluoropyridin-4-yl)ethyl)amino)-N-(4-hydroxyphenethyl)thieno[3,2-d]pyrimidine-4-carboxamide]: the Ratio in experiment [1] was 28.50. The pIC50 in experiment [1] is more than 8.00; in experiment [2], 6.30 to 7.00; in experiment [3], less than 6.30; in experiment [4] it was less than 6.30.

On to `C[C@H](Nc1nc(C(=O)N2CC(CNS(C)(=O)=O)C2)c2sccc2n1)c1cncc(F)c1` [Example Z531, (S)—N-((1-(2-((1-(5-Fluoropyridin-3-yl)ethyl)amino)thieno[3,2-d]pyrimidine-4-carbonyl)azetidin-3-yl)methyl)methanesulfonamide], for which the Ratio in experiment [1] was determined as 19.43. Further, the pIC50 was 7.30 to 8.00 in experiment [1], 6.30 to 7.00 in experiment [2], less than 6.30 in experiment [3] and less than 6.30 in experiment [4].

As for `Cc1cc2nc(N[C@@H](C)c3cncc(F)c3)nc(C(=O)N3CC(NC(=O)C4CCC4)C3)c2s1` [Example Z542, (S)—N-(1-(2-((1-(5-Fluoropyridin-3-yl)ethyl)amino)-6-methylthieno[3,2-d]pyrimidine-4-carbonyl)azetidin-3-yl)cyclobutanecarboxamide], the Ratio in experiment [1] was found to be 1.45. In addition, the pIC50 was 7.30 to 8.00 in experiment [1], 7.30 to 8.00 in experiment [2], less than 6.30 in experiment [3] and 7.00 to 7.30 in experiment [4].

On to `CC(=O)NC1CN(C(=O)c2nc(N[C@@H](C)c3cncc(F)c3)nc3ccsc23)C1` [Example Z530, (S)—N-(1-(2-((1-(5-Fluoropyridin-3-yl)ethyl)amino)thieno[3,2-d]pyrimidine-4-carbonyl)azetidin-3-yl)acetamide], for which the Ratio in experiment [1] stood at 6.99. Further, the pIC50 in experiment [1] was 7.30 to 8.00; in experiment [2] it was 6.30 to 7.00; in experiment [3] it was less than 6.30; in experiment [4], less than 6.30.

For the molecule `Cc1cc2nc(N[C@@H](C)c3cncc(F)c3)nc(C(=O)N3CC(NC(=O)OC(C)C)C3)c2s1` [Example Z511, Isopropyl (S)-(1-(2-((1-(5-fluoropyridin-3-yl)ethyl)amino)-6-methylthieno[3,2-d]pyrimidine-4-carbonyl)azetidin-3-yl)carbamate], the Ratio in experiment [1] was 2.90. Further, the pIC50 in experiment [1] was 7.30 to 8.00; in experiment [2], 7.30 to 8.00; in experiment [3] it was less than 6.30; in experiment [4], 7.00 to 7.30.

In the case of `Cc1csc2c(C(=O)NC3CCC3)nc(N[C@@H](C)c3ccccn3)nc12` [Example Z456, (S)—N-Cyclobutyl-7-methyl-2-((1-(pyridin-2-yl)ethyl)amino)thieno[3,2-d]pyrimidine-4-carboxamide], in experiment [1], the Ratio is given as 2.47. Besides, the negative-log IC50 (pIC50) in experiment [1] was more than 8.00; in experiment [2] it was 7.30 to 8.00; in experiment [3], less than 6.30; in experiment [4], 7.00 to 7.30.

`CCOC(=O)N(C)C1CN(C(=O)c2nc(N[C@@H](C)c3cncc(F)c3)nc3cc(C)sc23)C1` [Example Z507, Ethyl (S)-(1-(2-((1-(5-fluoropyridin-3-yl)ethyl)amino)-6-methylthieno[3,2-d]pyrimidine-4-carbonyl)azetidin-3-yl)(methyl)carbamate]: in experiment [1], the Ratio was 5.66. The negative-log IC50 (pIC50) in experiment [1] is 7.30 to 8.00; in experiment [2], 7.00 to 7.30; in experiment [3] it was less than 6.30; in experiment [4] it was less than 6.30.

For the molecule `Cc1csc2c(C(=O)NCc3cccnc3)nc(N[C@@H](C)c3ccccn3)nc12` [Example Z458, (S)-7-Methyl-2-((1-(pyridin-2-yl)ethyl)amino)-N-(pyridin-3-ylmethyl)thieno[3,2-d]pyrimidine-4-carboxamide], the Ratio in experiment [1] came out at 0.72. Besides, the negative-log IC50 (pIC50) in experiment [1] is 7.30 to 8.00; in experiment [2], 7.30 to 8.00; in experiment [3], less than 6.30; in experiment [4], less than 6.30.

Turning to `Cc1cc2nc(N[C@@H](C)c3cncc(F)c3)nc(C(=O)N3CC(CNC(=O)C(C)(C)C)C3)c2s1` [Example Z490, (S)—N-((1-(2-((1-(5-Fluoropyridin-3-yl)ethyl)amino)-6-methylthieno[3,2-d]pyrimidine-4-carbonyl)azetidin-3-yl)methyl)pivalamide], the Ratio in experiment [1] worked out at 10.96. Moreover, the pIC50 in experiment [1] was 7.30 to 8.00; in experiment [2], 6.30 to 7.00; in experiment [3] it was less than 6.30; in experiment [4], less than 6.30.

On to `CC1CCN1C(=O)c1nc(N[C@@H](C)c2cncc(F)c2)nc2ccsc12` (stereo partly drawn) [Example Z524, (2-(((S)-1-(5-Fluoropyridin-3-yl)ethyl)amino)thieno[3,2-d]pyrimidin-4-yl)(2-methylazetidin-1-yl)methanone], for which the Ratio in experiment [1] turned out to be 11.94. The pIC50 in experiment [1] is more than 8.00; in experiment [2] it was 7.00 to 7.30; in experiment [3], less than 6.30; in experiment [4], less than 6.30.

As to `Cc1csc2c(C(=O)N3CC[C@H](O)C3)nc(N[C@@H](C)c3cncc(F)c3)nc12` [Example Z416, (2-(((S)-1-(5-Fluoropyridin-3-yl)ethyl)amino)-7-methylthieno[3,2-d]pyrimidin-4-yl)((S)-3-hydroxypyrrolidin-1-yl)methanone], in experiment [1], the Ratio stood at 52.64. In addition, the pIC50 in experiment [1] was more than 8.00; in experiment [2] it was 6.30 to 7.00; in experiment [3], less than 6.30; in experiment [4], less than 6.30.

As for `C[C@H](Nc1nc(C(=O)N2CC(NC(=O)C(C)(C)C)C2)c2sccc2n1)c1cncc(F)c1` [Example Z594, (S)—N-(1-(2-((1-(5-Fluoropyridin-3-yl)ethyl)amino)thieno[3,2-d]pyrimidine-4-carbonyl)azetidin-3-yl)pivalamide], the Ratio in experiment [1] turned out to be 0.15. For the same molecule, the pIC50 in experiment [1] was 7.30 to 8.00; in experiment [2], more than 8.00; in experiment [3] it was less than 6.30; in experiment [4], 7.00 to 7.30.

`C[C@H](Nc1nc(C(=O)N2CC(CNC(=O)OCC(C)(C)C)C2)c2sccc2n1)c1cncc(F)c1` [Example Z581, Neopentyl (S)-((1-(2-((1-(5-fluoropyridin-3-yl)ethyl)amino)thieno[3,2-d]pyrimidine-4-carbonyl)azetidin-3-yl)methyl)carbamate]: the Ratio in experiment [1] is listed as 1.68. Besides, the pIC50 in experiment [1] was 7.30 to 8.00; in experiment [2], 7.30 to 8.00; in experiment [3] it was less than 6.30; in experiment [4], less than 6.30.

Regarding `CCNC(=O)c1ccc(CCNC(=O)c2nc(N[C@@H](C)c3cncc(F)c3)nc3cc(C)sc23)cc1` [Example Z506, (S)—N-(4-(Ethylcarbamoyl)phenethyl)-2-((1-(5-fluoropyridin-3-yl)ethyl)amino)-6-methylthieno[3,2-d]pyrimidine-4-carboxamide], in experiment [1], the Ratio stood at 22.42. The negative logarithm of the IC50 (pIC50) in experiment [1] was 7.30 to 8.00; in experiment [2] it was less than 6.30; in experiment [3] it was less than 6.30; in experiment [4], less than 6.30.

For the molecule `Cc1cc2nc(N[C@@H](C)c3ccccn3)nc(C(=O)N3CC(C(=O)OC(C)(C)C)C3)c2s1` [Example Z552, tert-Butyl (S)-1-(6-methyl-2-((1-(pyridin-2-yl)ethyl)amino)thieno[3,2-d]pyrimidine-4-carbonyl)azetidine-3-carboxylate], the Ratio in experiment [1] stood at 2.32. The pIC50 in experiment [1] is 7.30 to 8.00; in experiment [2], 7.30 to 8.00; in experiment [3], less than 6.30; in experiment [4], 6.30 to 7.00.

With `Cc1cc2nc(N[C@@H](C)c3cncc(F)c3)nc(C(=O)N3CC(CO)C3)c2s1` [Example Z494, (S)-(2-((1-(5-Fluoropyridin-3-yl)ethyl)amino)-6-methylthieno[3,2-d]pyrimidin-4-yl)(3-(hydroxymethyl)azetidin-1-yl)methanone], the Ratio in experiment [1] is 146.92. Further, the negative-log IC50 (pIC50) in experiment [1] was more than 8.00; in experiment [2], 6.30 to 7.00; in experiment [3], less than 6.30; in experiment [4], less than 6.30.

For the molecule `C[C@H](Nc1nc(C(=O)N2CC(CC(=O)NC(C)(C)C)C2)c2sccc2n1)c1cncc(F)c1` [Example Z571, (S)—N-(tert-Butyl)-2-(1-(2-((1-(5-fluoropyridin-3-yl)ethyl)amino)thieno[3,2-d]pyrimidine-4-carbonyl)azetidin-3-yl)acetamide], in experiment [1], the Ratio stood at 1.51. The negative-log IC50 (pIC50) in experiment [1] was 7.30 to 8.00; in experiment [2] it was 7.30 to 8.00; in experiment [3] it was less than 6.30; in experiment [4], less than 6.30.

For `CNC1CN(C(=O)c2nc(N[C@@H](C)c3cncc(F)c3)nc3cc(C)sc23)C1` [Example Z418, (S)-(2-((1-(5-Fluoropyridin-3-yl)ethyl)amino)-6-methylthieno[3,2-d]pyrimidin-4-yl)(3-(methylamino)azetidin-1-yl)methanone], in experiment [1], the Ratio worked out at 207.31. The pIC50 was 7.30 to 8.00 in experiment [1], less than 6.30 in experiment [2], less than 6.30 in experiment [3] and less than 6.30 in experiment [4].

For `CN[C@@H]1CCN(C(=O)c2nc(N[C@@H](C)c3cncc(F)c3)nc3cc(C)sc23)C1` [Example Z560, (2-(((S)-1-(5-Fluoropyridin-3-yl)ethyl)amino)-6-methylthieno[3,2-d]pyrimidin-4-yl)((R)-3-(methylamino)pyrrolidin-1-yl)methanone], the Ratio in experiment [1] is given as 59.47. Besides, the pIC50 in experiment [1] was 7.00 to 7.30; in experiment [2], less than 6.30; in experiment [3], less than 6.30; in experiment [4], less than 6.30.

These data come from US11254686B1 (Corvus Pharmaceuticals, Inc., priority 2017, dated 2022).
